From patent US9206130B2, “Quinoline derivatives as AXL kinase inhibitors” (Max-Planck-Gesellschaft zur Förderung der Wissenschaften …, priority 2008, dated 2015)

What was measured:
[1] = molecular target: T1, wild type AXL (wtAXL) receptor tyrosine kinase (Homo sapiens, UniProt P30530); experiment: NIH-3T3-AXL cellular tyrosine kinase assay (inhibition of AXL phosphorylation); format: cell-based; settings: AXL phosphorylation in NIH-3T3-AXL (clone 22) cells, serum-depleted, 2 h with compound, immunoprecipitation / anti-phosphotyrosine blot
T1 construct: WtAXL cDNA was cloned into vector pLXSN(ESK) and transfected into Phoenix E packaging cells; expressed in transfected cells; host or cells: NIH3T3 N7 mouse fibroblasts, retrovirally infected (clone 22)
T1 sequence (P30530 26-894): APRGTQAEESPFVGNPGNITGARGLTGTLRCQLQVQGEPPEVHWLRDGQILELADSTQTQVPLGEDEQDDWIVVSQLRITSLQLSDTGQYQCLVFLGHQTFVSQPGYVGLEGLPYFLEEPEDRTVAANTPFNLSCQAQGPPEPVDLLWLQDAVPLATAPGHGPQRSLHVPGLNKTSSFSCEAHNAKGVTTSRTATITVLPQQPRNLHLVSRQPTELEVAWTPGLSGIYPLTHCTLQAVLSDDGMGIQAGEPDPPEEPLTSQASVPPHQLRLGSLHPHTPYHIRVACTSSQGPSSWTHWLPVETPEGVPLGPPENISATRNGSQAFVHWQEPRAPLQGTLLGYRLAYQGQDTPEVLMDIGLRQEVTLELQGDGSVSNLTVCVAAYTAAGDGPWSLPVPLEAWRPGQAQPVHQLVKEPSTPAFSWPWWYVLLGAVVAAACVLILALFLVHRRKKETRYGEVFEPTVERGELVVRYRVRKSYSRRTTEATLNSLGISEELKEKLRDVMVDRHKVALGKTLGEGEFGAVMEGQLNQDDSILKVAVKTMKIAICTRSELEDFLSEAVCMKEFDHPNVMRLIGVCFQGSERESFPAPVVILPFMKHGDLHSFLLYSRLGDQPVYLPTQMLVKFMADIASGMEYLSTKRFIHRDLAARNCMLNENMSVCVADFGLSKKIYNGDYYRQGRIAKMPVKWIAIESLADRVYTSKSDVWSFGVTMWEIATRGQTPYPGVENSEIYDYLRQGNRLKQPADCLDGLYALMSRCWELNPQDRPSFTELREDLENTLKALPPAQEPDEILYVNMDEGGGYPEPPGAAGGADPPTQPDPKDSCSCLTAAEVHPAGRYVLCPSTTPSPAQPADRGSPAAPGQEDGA
Method in brief: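 NIH3T3 clones stably expressing human wtAXL (puromycin-selected) were exposed to serially diluted compounds for 2 h. AXL was immunoprecipitated from lysates with anti-AXL antibody, and phosphorylation detected by anti-phosphotyrosine (4G10) western blot with ECL.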

IC50 [1]	melting point	Structure (SMILES)
82 nM	102 to 106 °C	COc1cc2c(Oc3ccc(NS(=O)(=O)c4ccccc4F)cc3F)ccnc2cc1OCCCN1CCCC(C)C1 (centres unmarked) [Example D30, 2-Fluoro-N-(3-fluoro-4-{6-methoxy-7-[3-(3-methyl-piperidin-1-yl)-propoxy]-quinolin-4-yloxy}-phenyl)-benzenesulfonamide]
> 10000 nM	166 to 167 °C	Cc1cc(Oc2ccc(NS(=O)(=O)c3cccs3)c(F)c2)c2cc(F)ccc2n1 [Example B1, Thiophene-2-sulfonic acid [2-fluoro-4-(6-fluoro-2-methyl-quinolin-4-yloxy)-phenyl]-amide]
630 nM	179 to 180 °C	COc1cc2nccc(Oc3ccc(NS(=O)(=O)c4cccc(Oc5ccccc5)c4)c(F)c3)c2cc1OC [Example A30, N-[4-(6,7-Dimethoxy-quinolin-4-yloxy)-2-fluoro-phenyl]-3-phenoxy-benzenesulfonamide]
> 10000 nM	229 to 231 °C	COc1cc2nccc(Oc3ccc(NS(=O)(=O)c4ccc(OC)c(C(C)(C)C)c4)cc3)c2cc1OC [Example A70, 3-tert-Butyl-N-[4-(6,7-dimethoxy-quinolin-4-yloxy)-phenyl]-4-methoxy-benzenesulfonamide]
